Source: patent US12629351B2, “HDAC inhibitors for idiopathic pulmonary fibrosis and other lung inflammatory disorders” (COUNCIL OF SCIENTIFIC AND INDUSTRIAL RESEARCH (AN INDIAN …, priority 2020, dated 2026)

How the values were obtained:
[1] = system: NHLF, DHLF and LL29 cells; assay: q-RT-PCR gene expression in TGF-β1 stimulated cells, statements not split by cell line; format: cell-based, human; conditions: for HDAC-8 levels (gene expression): TGF-β1 stimulated, other concentrations
Method: (§1) LL29 cells (lung fibroblasts from IPF patient) were purchased from ATCC and cultured in Ham's F-12K medium supplemented with 15% FBS. Primary lung fibroblasts cells, NHLF and DHLF-IPF cells were purchased from LONZA and cultured in FGF-2 medium with FGF, Insulin and FBS. All the cells were maintained in a humidified atmosphere of 95% air with 5% CO2 at 37° C.
(§2) Cells were pre-treated with HDAC-inhibitors (COMPOUND-109, COMPOUND-108 and COMPOUND-107) for 2 hours in serum free media and then human recombinant TGF-β (R&D Systems, Minneapolis, MN) was added at a concentration of 5 ng/mL and cultured for 72 hours for all the experiments.
(§3) RNA isolation was carried out using Trizol as described^12,13. RNA was isolated using Trizol-chloroform method and total RNA was quantified using nano-drop, 1 μg of RNA was used for cDNA synthesis using primescript cDNA synthesis kit (Takara bio) according to manufacturer's instructions. Primers for EMT (Fibronectin1 (FN1), Vimentin, α-SMA and Snail) markers, ECM markers (Timp1, Timp3 and LoxL2), Collagen markers (Collagen 1α1 (Col1) and Collagen 3α1[…] and housekeeping markers (β2M and β-actin) were designed using Primer 3 software and all primer sequences were listed in Table 1. Real time quantitative PCR (qRT-PCR) was carried out using SYBR green master mix and the differences in mRNA expression of all the gene levels were calculated as the fold change using the formula 2-ΔΔct. In all Q-RT-PCR data plots, vehicle control fold change was normalized to 1.

[2] = system: NHLF cells; assay: q-RT-PCR gene expression in TGF-β1 stimulated NHLF cells; format: cell-based, human
Method: as §1, §2, §3

[3] = system: LL29 cells; assay: q-RT-PCR gene expression in TGF-β1 stimulated LL29 cells; format: cell-based, human
Method: as §1, §2, §3

[4] = system: LPS induced ARDS; assay: LPS induced ARDS model; format: in vivo, SD rats
Method: as §3
Treatment group animals were treated with HDACi (COMPOUND-108) for 7 days at the doses of (1.5 mg/kg and 3 mg/kg), after the treatment period animals were subjected to ARDS instillation by intratracheally. Rats were anesthetized using ketamine and xylazine (80 mg/kg and 20 mg/kg, respectively as per body weight, I.P.). Except 8 animals (Sham control), ARDS was induced in remaining all animals (24 SD rats) by intratracheal instillation of Lipopolysachharide (5 mg/kg) dissolved in normal saline.
(§4) In 4 animals from each group, the thoracic cavity was opened and the tracheas were exposed, cannulated and 3 mL sterile 0.9% saline was slowly infused into the lungs. BALF was centrifuged at 2000 rpm, 4 ° C. for 10 min using cooling centrifuge. The sedimented cell pellets were pooled and re-suspended in 500 μl of sterile saline to quantify inflammatory cell counts; supernatant BLAF was examined for ALP and LDH parameters using auto-analyzer.
A portion of the pulmonary lobe was harvested, rinsed with ice-cold phosphate buffer saline, and fixed with 10% neutral-buffered formalin, embedded in paraffin wax, sectioned (6 μm) and stained with H&E and Masson's trichrome. Three serial slices of 3 μm thickness each 50 μm apart of both lung lobes were stained with Masson's Trichrome. The slides were analyzed with a microscope in a random order using an (10×) objective. The severity of fibrosis and alveolitis in lung tissues (using H&E and Masson's trichrome staining) was semi-quantitatively assessed by a pathologist in a blinded fashion via Ashcroft scoring system^15. The structural alterations of tissue were assessed based on the degree haemorrhage, emphysema, alveolar wall thickening, inflammatory lesions and collagen deposition or fibrosis^16.

[5] = system: BLM-induced pulmonary fibrosis; assay: Bleomycin (BLM) induced pulmonary fibrosis model; format: in vivo, Wistar rats; conditions: for ALP levels / LDH levels: BALF, oral, daily for 14 days; for BLM induced thickened alveolar walls, inflammatory cells infiltration, deposition of collagen fibers (histopathology): H&E (Fibrosis score) and Masson's staining (Ashcroft score), compared BLM alone group; for BLM-induced inflammation, fibrotic marker expression and pathological changes in lung tissues: collective in-vivo conclusion
Method: as §3
Adult female Wistar rats (180-200 g, n=50) at the age of 8-10 weeks were used to develop bleomycin induced pulmonary fibrosis model. All animals were kept under constant environmental and nutritional conditions throughout the experimental period. The research protocol complies with the ethical guidelines of experimental research; “Institutional Animal Ethics Committee” (CPSCEA Registration No. 97/GO/RBi/S/1999/CPCSEA and study approval No. IICT/056/2019), CSIR-IICT, Hyderabad.
Except 8 animals (Sham control), pulmonary fibrosis was induced in remaining all animals (32 Wistar rats) by intratracheal instillation of BLM (5 mg/kg) as sulfate salt dissolved in 1 mL of normal saline. Rats were anesthetized using ketamine and xylazine (80 mg/kg and 15 mg/kg respectively as per body weight, I.P.). BLM was administered intratracheally into the lungs of the rats.
Pulmonary fibrosis was induced by a single intratracheal instillation of BLM (5 mg/kg) to the set of animals (n=40) excluding sham control animals (n=8)^14. BLM was dissolved in saline to attain the concentration of 5 mg/ml. Animals were anesthetized with ketamine (80 mg/kg) and xylazine (10 mg/kg). BLM was administered intratracheal (5 mg/kg) to the anesthetized Wistar rats and saline was administered intratracheally in to sham control animals. […] Further, these animals were randomized into four groups (as described in Table-2) apart from sham control (8 rats/group).
As described in the grouping pattern Table 2 and 3, animals were grouped and administered the compounds orally in the form of gum-acacia suspension (0.25%) daily for 14 days. Sham control (without bleomycin) animals were used as a control for bleomycin control (disease control) and administered everyday 0.5 mL of saline for 14 days orally. After the treatment period, BALF fluid was collected from 4 animals in each group and lungs were collected from another 4 animals for ex-vivo experiments and histopathological observations.
as §4
Collagen deposition was determined by measuring the total hydroxyproline content in wet lung tissue, which was measured by a hydroxyproline assay kit (abcam), according to the manufacturer's protocol. In brief, lungs were homogenized in sterile distilled water, alkalized using 10N NaOH and heated at 120° C. for 1 hour. Following alkaline hydrolysis samples were neutralized using 10N concentrated HCL. Then samples were into 96 well plate along with standards and kept for evaporation at 65° C. Then samples were oxidized by adding oxidation mixture followed by addition of developer and incubated at 37° C. for 5 min. […]

Row | Compound | HDAC-8 levels (gene expression) [1] | HDAC-6 mRNA levels ([1]; summary of Example 2) | vimentin levels [2] | α-SMA levels [2] | vimentin levels [3] | α-SMA levels [3] | ALP levels [5] | LDH levels [5] | BLM induced thickened alveolar walls, inflammatory cells infiltration, deposition of collagen fibers (histopathology) [5] | BLM-induced inflammation, fibrotic marker expression and pathological changes in lung tissues [5] | other results
1 | Cn1cc(-c2cc(O)cc(F)c2)c2cc(NS(=O)(=O)c3ccc(C(=O)NO)cc3)ccc21 [COMPOUND-107, 4-(N-(3-(3-fluoro-5-hydroxyphenyl)-1-methyl-1H-indol-5-yl)sulfamoyl)-N-hydroxyl benzamide] | did not modulate | could inhibit only HDAC-6 mRNA levels | highly reduced | highly reduced | highly reduced | highly reduced |  |  |  |  | Snail levels ([3]; 10 and 20 μM): highly down-regulated
2 | Cn1cc(-c2cccc(Cl)c2)c2cc(NS(=O)(=O)c3ccc(C(=O)NO)cc3)ccc21 [COMPOUND-108, 4-(N-(3-(3-chlorophenyl)-1-methyl-1H-indol-5-yl)sulfamoyl)-N-hydroxybenzamide] | did not modulate | potentially inhibits | highly reduced | highly reduced | highly reduced | highly reduced | reduced in dose dependently | reduced in dose dependently | reduced | could effectively protect | HDAC-8 mRNA levels ([1]; summary of Example 2): potentially inhibits; lung injury and infiltration of inflammatory cells (histopathology) ([4]; 1.5 mg/kg): significant (p<0.01) reduction; LPS induced Neutrophil count in blood ([4]; 3 mg/kg): significantly attenuated; lung injury and infiltration of inflammatory cells (histopathology) ([4]; 3 mg/kg): significant (p<0.01) reduction; plasma IL-6 Levels ([4]; 3 mg/kg, at both the time points): reduced; LPS induced infiltration of Neutrophils ([4]; BALF): significantly attenuated; LPS induced infiltration of WBC ([4]; BALF): significantly attenuated; LPS induced expression of inflammatory markers (IL-6, IL-1β, CCl2, Cox-2, CXCL-6, CCL-7, CXCL-1, CXCL-10) ([4]; lung tissues, mRNA, dose dependent manner): significantly attenuated; LPS induced inflammatory marker's expression (CXCL-11, TLR-3 and INF-γ) ([4]; lung tissues, mRNA, in dose dependent manner): significantly attenuated; pathological consequences (LPS induced), H&E ([4]; pre-treatment at 1.5 and 3 mg/kg doses): remarkably repressed; LPS induced Lung volume (index) ([4]; rat, in vivo): significantly attenuated; LPS induced spleen Indices ([4]; rat, in vivo): significantly attenuated; lung pathological conditions ([4]; statement in embodiment): most effectively ameliorated; HDAC-8 levels (gene expression) ([2]; 2.5 μM): reduced; HDAC-8 levels (gene expression) ([3]; 2.5 μM): reduced; Snail levels ([3]; 5 and 10 μM): highly down-regulated; fibrotic alterations in BLM challenged rat lung tissues ([5]; statement in embodiment): most effectively ameliorated
3 | CCOc1ccc(-c2cn(C)c3ccc(NS(=O)(=O)c4ccc(C(=O)NO)cc4)cc23)cn1 [COMPOUND-109, 4-(N-(3-(6-ethoxypyridin-3-yl)-1-methyl-1H-indol-5-yl)sulfamoyl)-N-hydroxy benzamide] | did not modulate | could inhibit only HDAC-6 mRNA levels | not modulated | highly reduced | not modulated | highly reduced | reduced in dose dependently | reduced in dose dependently | reduced | could effectively protect | 
